Measured values: the supplement of paper PMC10307832

Assays:
Experiment in all cases: relative viability (nuclei count vs DMSO), 5 days (fraction); higher = more cells survive
AZ628 + Linsitinib = compound: CC1=C(C=C(C=C1)NC(=O)C2=CC(=CC=C2)C(C)(C)C#N)NC3=CC4=C(C=C3)N=CN(C4=O)C [AZ628] + C[C@]1(O)C[C@@H](c2nc(-c3ccc4ccc(-c5ccccc5)nc4c3)c3c(N)nccn32)C1 [Linsitinib] (partner 1 µM)
Procedure, shortened: (§1)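 Relative viability is defined as nuclei in treated wells over nuclei in vehicle wells. Duplicate plates were run and medians reported. Lung cancer cell lines in 1536-well plates were dosed by pin tool one day after seeding, with one drug or with a fixed anchor-drug dose plus five library-drug doses (not always all listed) in √10 steps, and nuclei were counted after 5 days.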

Darinaparsin + AZD7762 = compound: C[As](C)SC[C@H](NC(=O)CC[C@H](N)C(=O)O)C(=O)NCC(=O)O [Darinaparsin] + NC(=O)Nc1cc(-c2cccc(F)c2)sc1C(=O)N[C@H]1CCCNC1 [AZD7762] (partner 0.2 µM)
Procedure, shortened: as §1

Darinaparsin + OSI-027 = compound: C[As](C)SC[C@H](NC(=O)CC[C@H](N)C(=O)O)C(=O)NCC(=O)O [Darinaparsin] + COc1cccc2cc(-c3nc([C@H]4CC[C@H](C(=O)O)CC4)n4ncnc(N)c34)[nH]c12 [OSI-027] (partner 0.5 µM)
Procedure, shortened: as §1

[1] = compound: C[As](C)SC[C@H](NC(=O)CC[C@H](N)C(=O)O)C(=O)NCC(=O)O [Darinaparsin] + Nc1nc2[nH]cc(CCc3ccc(C(=O)N[C@@H](CCC(=O)O)C(=O)O)cc3)c2c(=O)[nH]1 [Pemetrexed] (partner 0.2 µM)
Procedure, shortened: as §1

Cell Line	relative viability (AZ628 + Linsitinib; first compound 0.08 µM)	relative viability (AZ628 + Linsitinib; first compound 0.253 µM)	relative viability (AZ628 + Linsitinib; first compound 0.8 µM)	relative viability (AZ628 + Linsitinib; first compound 2.53 µM)	relative viability (AZ628 + Linsitinib; first compound 8 µM)	relative viability (Darinaparsin + AZD7762; first compound 0.08 µM)	relative viability (Darinaparsin + AZD7762; first compound 0.8 µM)	relative viability (Darinaparsin + AZD7762; first compound 2.53 µM)	relative viability (Darinaparsin + AZD7762; first compound 8 µM)	relative viability (Darinaparsin + OSI-027; first compound 0.08 µM)	relative viability (Darinaparsin + OSI-027; first compound 0.8 µM)	relative viability (Darinaparsin + OSI-027; first compound 2.53 µM)	relative viability (Darinaparsin + OSI-027; first compound 8 µM)	relative viability ([1]; first compound 0.08 µM)	relative viability ([1]; first compound 0.8 µM)	relative viability ([1]; first compound 2.53 µM)	relative viability ([1]; first compound 8 µM)
A549	0.571	0.542	0.469	0.606	0.39												
ABC-1	0.857	0.81	0.854	0.719	0.799	0.747	0.82	0.851	0.968	0.489	0.424	0.453	0.444				
COR-L23	1.05	0.886	0.986	0.81	0.492					0.975	0.645	0.785	0.838	0.198	0.209	0.18	0.2
COR-L 105	0.933	0.897	0.934	0.857	0.651					0.625	0.704	0.486	0.559	1.39	1.21	0.913	1.27
Calu-6	1.05	0.859	0.401	0.673	0.153												
ChaGo-K-1						0.979	0.931	0.789	1.03	0.612	0.518	0.516	0.715	0.251	0.266	0.271	0.263
EBC-1	0.87	0.843	0.999	0.773	0.885												
IA-LM	0.761	0.711	0.509	0.353	0.252												
NCI-H520	1.08	1.03	0.872	1.01	0.62					0.362	0.302	0.185	0.302	0.639	0.613	0.68	0.76
NCI-H522						0.764	0.895	0.809	0.883	0.617	0.644	0.623	0.712	0.916	1.04	1.01	1.14
NCI-H661	0.474	0.523	0.49	0.517	0.443					0.722	0.677	0.658	0.69	0.915	0.922	0.921	1.02
NCI-H727	0.194	0.2	0.225	0.282	0.201	0.556	0.599	0.598	0.581	0.77	0.541	0.794	0.854				
NCI-H1299	0.987	1.04	0.993	0.91	0.579												
NCI-H1563	1.3	1.18	1.23	1.29	1.29					0.752	0.735	0.71	0.708	0.761	0.765	0.669	0.866
